# Assay results as given in US20250163104A1, “MACROCYCLIC IMMUNOMODULATORS” (priority 2021, published 2025).
# Where a SMILES comes first, the peptide text is derived from it. Bridges are numbered along the chain shown (N, C = ends). [ ]: non-standard residue; d: D form. The star is where a group is joined. ξ: configuration not given here. Phe(4-COOH) = N[C@@H](Cc1ccc(C(=O)O)cc1)C(=O)O; Phe(3,4-F2) = N[C@@H](Cc1ccc(F)c(F)c1)C(=O)O; Bip = N[C@@H](Cc1ccc(-c2ccccc2)cc1)C(=O)O; Phe(4-CN) = N#Cc1ccc(C[C@H](N)C(=O)O)cc1; Ala(2-furyl) = N[C@@H](Cc1ccco1)C(=O)O; Phe(2-CN) = N#Cc1ccccc1C[C@H](N)C(=O)O; Phe(3-Me) = Cc1cccc(C[C@H](N)C(=O)O)c1; Val(3-OH) = CC(C)(O)[C@H](N)C(=O)O; 4Pal = N[C@@H](Cc1ccncc1)C(=O)O; Cha = N[C@@H](CC1CCCCC1)C(=O)O; Cit = NC(=O)NCCC[C@H](N)C(=O)O; Thr(3ξ) = CC(O)[C@H](N)C(=O)O; dDab = NCC[C@@H](N)C(=O)O; Carboxymethyl = O=C(O)C*; Orn = NCCC[C@H](N)C(=O)O; Pra = C#CC[C@H](N)C(=O)O; Dab = NCC[C@H](N)C(=O)O; Dap = NC[C@H](N)C(=O)O
# Molecular target: T1, human PD-1 / PD-L1-Ig binding on Jurkat cell line over-expressing human PD-1 (Jurkat-PD-1) (Homo sapiens, UniProt Q15116)
# T1 construct: expressed in transfected cells; host or cells: Jurkat
# Assay: Jurkat-PD-1 Cell Binding High-Content Screening Assay (CBA)
# Format: cell-based
# Details: Jurkat-PD-1 cells, PE-labeled PD-L1-Ig 20 nM final; read-out: Jurkat HPD1_PDL1 IC50
# Outline: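 Compounds were preincubated with Jurkat-hPD-1 cells in DMEM plus 10% fetal calf serum for 2 h at 37° C. Phycoerythrin-labeled PD-L1-Ig (20 nM final) was then added for 1 hour. Cells were fixed in 4% paraformaldehyde with Hoechst 33342, and bound fluorescence was quantified by high-content imaging.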
# T1 sequence (Q15116 25-288): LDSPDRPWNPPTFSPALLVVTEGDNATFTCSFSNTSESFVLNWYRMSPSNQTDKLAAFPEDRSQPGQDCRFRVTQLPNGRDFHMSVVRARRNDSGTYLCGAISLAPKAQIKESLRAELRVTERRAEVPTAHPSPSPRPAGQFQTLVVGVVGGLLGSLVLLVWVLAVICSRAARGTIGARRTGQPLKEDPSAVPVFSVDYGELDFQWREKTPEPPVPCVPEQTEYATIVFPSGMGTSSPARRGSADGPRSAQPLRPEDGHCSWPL
row,Compound,IC50
1,CC(C)C[C@H]1NC(=O)[C@H](CCCN)NC(=O)[C@H](CCCNC(N)=O)NC(=O)[C@H](Cc2ccc(-c3ccccc3)cc2)NC(=O)[C@H](C(C)C)NC(=O)[C@H](Cc2c[nH]c3ccccc23)NC(=O)[C@H](CC(=O)O)NC(=O)[C@H](Cc2ccco2)NC(=O)[C@H](CN)NC(=O)CSC[C@@H](C(=O)N[C@@H](C)C(N)=O)NC(=O)[C@H]([C@@H](C)O)NC(=O)[C@H](C(C)C)NC(=O)[C@H](CC2CCCCC2)NC(=O)[C@H](CCN)NC1=O [Compound 2099] ({CH2CO}-[Dap][Ala(2-furyl)]DWV[Bip][Cit][Orn][dL][Dab][Cha]VTCA-NH2; thioether N-14),12.6 nM
2,CC(C)C[C@H]1NC(=O)[C@H](CCCN)NC(=O)[C@H](C(C)C)NC(=O)[C@H](Cc2ccc(-c3ccccc3)cc2)NC(=O)[C@H](C(C)C)NC(=O)[C@H](Cc2c[nH]c3ccccc23)NC(=O)[C@H](CC(=O)O)NC(=O)[C@H](Cc2ccc(OCC(=O)O)cc2)NC(=O)[C@H](Cc2ccc(OCC(=O)O)cc2)NC(=O)CSC[C@@H](C(=O)N[C@@H](C)C(N)=O)NC(=O)[C@H](CCCN)NC(=O)[C@H](C(C)C)NC(=O)[C@H](CC2CCCCC2)NC(=O)[C@H](CCN)NC1=O [Compound 1743] ({CH2CO}-Y(Carboxymethyl)Y(Carboxymethyl)DWV[Bip]V[Orn][dL][Dab][Cha]V[Orn]CA-NH2; thioether N-14),6 nM
3,CC[C@H](C)[C@@H]1NC(=O)[C@H](Cc2ccc(-c3ccccc3)cc2)NC(=O)[C@H](C(C)C)NC(=O)[C@H](Cc2cccc(C)c2)NC(=O)[C@H](CC(=O)O)NC(=O)[C@H](Cc2ccncc2)NC(=O)[C@H](Cc2ccc(OCC(=O)O)cc2)NC(=O)CSC[C@@H](C(=O)N[C@@H](C)C(N)=O)NC(=O)[C@H]([C@@H](C)O)NC(=O)[C@H](C(C)C)NC(=O)[C@H](CC2CCCCC2)NC(=O)[C@H](CCN)NC(=O)[C@@H](CC(C)C)NC(=O)[C@H](CCCN)NC1=O [Compound 1330],12.8 nM
4,CC(C)C[C@@H]1NC(=O)[C@H](Cc2c[nH]c3ccccc23)NC(=O)[C@H](CC(=O)O)NC(=O)[C@H](Cc2ccc(O)cc2)NC(=O)[C@H](Cc2ccccc2)NC(=O)CSC[C@@H](C(=O)N[C@@H](C)C(N)=O)NC(=O)[C@H](CO)NC(=O)[C@H](C(C)C)NC(=O)[C@H](CC(C)C)NC(=O)[C@H](CC(N)=O)NC(=O)[C@@H](CC(C)C)NC(=O)[C@H](CN)NC(=O)[C@H](CCC(=O)O)NC(=O)[C@H](Cc2ccc(-c3ccccc3)cc2)NC1=O [Compound 1226] ({CH2CO}-FYDWL[Bip]E[Dap][dL]NLVSCA-NH2; thioether N-14),32.2 nM
5,CC(C)C[C@H]1NC(=O)[C@H](CCCN)NC(=O)[C@H](CCC(=O)O)NC(=O)[C@H](Cc2ccc(-c3ccccc3)cc2)NC(=O)[C@H](C(C)C)NC(=O)[C@H](Cc2c[nH]c3ccccc23)NC(=O)[C@H](CC(=O)O)NC(=O)[C@H](Cc2ccc(OCC(=O)O)cc2)NC(=O)[C@H](CN)NC(=O)CSC[C@@H](C(=O)N[C@@H](C)C(N)=O)NC(=O)[C@H]([C@@H](C)O)NC(=O)[C@H](C(C)C)NC(=O)[C@H](Cc2ccccc2C#N)NC(=O)[C@H](CCN)NC1=O [Compound 1487] ({CH2CO}-[Dap]Y(Carboxymethyl)DWV[Bip]E[Orn][dL][Dab][Phe(2-CN)]VTCA-NH2; thioether N-14),268 nM
6,CC(C)C[C@@H]1NC(=O)[C@H](CCN)NC(=O)[C@@H](CC(C)C)NC(=O)[C@@H](CCN)NC(=O)[C@H](C(C)C)NC(=O)[C@H](Cc2ccc(-c3ccccc3)cc2)NC(=O)[C@H](C(C)C)NC(=O)[C@H](Cc2c[nH]c3ccccc23)NC(=O)[C@H](CC(=O)O)NC(=O)[C@H](Cc2ccc(O)cc2)NC(=O)[C@H](CC(N)=O)NC(=O)CSC[C@@H](C(=O)N[C@@H](C)C(N)=O)NC(=O)[C@H]([C@@H](C)O)NC(=O)[C@H](C(C)C)NC1=O [Compound 1023] ({CH2CO}-NYDWV[Bip]V[dDab][dL][Dab]LVTCA-NH2; thioether N-14),4.6 nM
7,CC(C)C[C@H]1NC(=O)[C@H](CCCN)NC(=O)[C@H](CCC(=O)O)NC(=O)[C@H](Cc2ccc(-c3ccccc3)cc2)NC(=O)[C@H](C(C)C)NC(=O)[C@H](Cc2c[nH]c3ccccc23)NC(=O)[C@H](CC(=O)O)NC(=O)[C@H](Cc2ccc(OCC(=O)O)cc2)NC(=O)[C@H](Cc2ccc(OCC(=O)O)cc2)NC(=O)CSC[C@@H](C(=O)N[C@@H](C)C(N)=O)NC(=O)[C@H]([C@@H](C)O)NC(=O)[C@H](C(C)C)NC(=O)[C@H](Cc2ccccc2)NC(=O)[C@H](CCN)NC1=O [Compound 1668] ({CH2CO}-Y(Carboxymethyl)Y(Carboxymethyl)DWV[Bip]E[Orn][dL][Dab]FVTCA-NH2; thioether N-14),48.7 nM
8,C#CC[C@H](NC(=O)[C@H](C)NC(=O)[C@@H]1CSCC(=O)N[C@@H](CN)C(=O)N[C@@H](Cc2ccc(OCC(=O)O)cc2)C(=O)N[C@@H](CC(=O)O)C(=O)N[C@@H](Cc2cccc(C)c2)C(=O)N[C@@H](C(C)C)C(=O)N[C@@H](Cc2ccc(-c3ccccc3)cc2)C(=O)N[C@@H](CCCNC(N)=O)C(=O)N[C@@H](CCCN)C(=O)N[C@H](CC(C)C)C(=O)N[C@@H](CCN)C(=O)N[C@@H](CC2CCCCC2)C(=O)N[C@@H](C(C)C)C(=O)N[C@@H]([C@@H](C)O)C(=O)N1)C(=O)O [Compound 2262],63.6 nM
9,Cc1cccc(C[C@@H]2NC(=O)[C@H](CC(=O)O)NC(=O)[C@H](Cc3ccc(C#N)cc3)NC(=O)[C@H](C(C)O)NC(=O)CSC[C@@H](C(=O)N[C@@H](CCN)C(N)=O)NC(=O)[C@H](Cc3c[nH]cn3)NC(=O)[C@H](C(C)(C)O)NC(=O)[C@H](CC3CCCCC3)NC(=O)[C@H](CCN)NC(=O)[C@@H](CC(C)C)NC(=O)[C@H](CCCN)NC(=O)[C@H](Cc3ccc(OCC(=O)O)cc3)NC(=O)[C@H](Cc3ccc(-c4ccccc4)cc3)NC(=O)[C@H](Cc3ccc(OCC(=O)O)cc3)NC2=O)c1 (stereo partly drawn) [Compound 2673] ({CH2CO}-[Thr(3ξ)][Phe(4-CN)]D[Phe(3-Me)]Y(Carboxymethyl)[Bip]Y(Carboxymethyl)[Orn][dL][Dab][Cha][Val(3-OH)]HC[Dab]-NH2; thioether N-14),5.8 nM
10,CC(C)C[C@H]1NC(=O)[C@H](CCCN)NC(=O)[C@H](CN)NC(=O)[C@H](Cc2ccc(-c3ccccc3)cc2)NC(=O)[C@H](C(C)C)NC(=O)[C@H](Cc2c[nH]c3ccccc23)NC(=O)[C@H](CC(=O)O)NC(=O)[C@H](Cc2ccc(O)cc2)NC(=O)[C@H](CC(N)=O)NC(=O)CSC[C@@H](C(=O)N[C@@H](C)C(N)=O)NC(=O)[C@H]([C@@H](C)O)NC(=O)[C@H](C(C)C)NC(=O)[C@H](CC2CCCCC2)NC(=O)[C@H](CCN)NC1=O [Compound 1380],16.8 nM
11,"CC(C)C[C@H]1NC(=O)[C@H](CCCN)NC(=O)[C@H](CCCNC(N)=O)NC(=O)[C@H](Cc2ccc(-c3ccccc3)cc2)NC(=O)[C@H](C(C)C)NC(=O)[C@H](Cc2c[nH]c3ccccc23)NC(=O)[C@H](CC(=O)O)NC(=O)[C@H](Cc2ccc(F)c(F)c2)NC(=O)[C@H](CN)NC(=O)CSC[C@@H](C(=O)N[C@@H](C)C(N)=O)NC(=O)[C@H]([C@@H](C)O)NC(=O)[C@H](C(C)C)NC(=O)[C@H](CC2CCCCC2)NC(=O)[C@H](CCN)NC1=O [Compound 2129] ({CH2CO}-[Dap][Phe(3,4-F2)]DWV[Bip][Cit][Orn][dL][Dab][Cha]VTCA-NH2; thioether N-14)",48.2 nM
12,CC(C)C[C@H]1NC(=O)[C@H](CCCN)NC(=O)[C@H](C(C)C)NC(=O)[C@H](Cc2ccc(-c3ccccc3)cc2)NC(=O)[C@H](C(C)C)NC(=O)[C@H](Cc2c[nH]c3ccccc23)NC(=O)[C@H](CC(=O)O)NC(=O)[C@H](Cc2ccc(OCC(=O)O)cc2)NC(=O)[C@H](CCCNC(=N)N)NC(=O)CSC[C@@H](C(=O)N[C@@H](C)C(N)=O)NC(=O)[C@H](C(C)O)NC(=O)[C@H](C(C)C)NC(=O)[C@H](CC2CCCCC2)NC(=O)[C@H](CCN)NC1=O (stereo partly drawn) [Compound 2530] ({CH2CO}-RY(Carboxymethyl)DWV[Bip]V[Orn][dL][Dab][Cha]V[Thr(3ξ)]CA-NH2; thioether N-14),8.5 nM
13,C#CC[C@H](NC(=O)[C@H](CCN)NC(=O)[C@@H]1CSCC(=O)N[C@@H](Cc2ccncc2)C(=O)N[C@@H](Cc2ccc(C(=O)O)cc2)C(=O)N[C@@H](CC(=O)O)C(=O)N[C@@H](Cc2cccc(C)c2)C(=O)N[C@@H](Cc2ccc(OCC(=O)O)cc2)C(=O)N[C@@H](Cc2ccc(-c3ccccc3)cc2)C(=O)N[C@@H](Cc2ccc(OCC(=O)O)cc2)C(=O)N[C@@H](CCCN)C(=O)N[C@H](CC(C)C)C(=O)N[C@@H](CCN)C(=O)N[C@@H](CC2CCCCC2)C(=O)N[C@@H](C(C)(C)O)C(=O)N[C@@H](CO)C(=O)N1)C(=O)O [Compound 2324] ({CH2CO}-[4Pal][Phe(4-COOH)]D[Phe(3-Me)]Y(Carboxymethyl)[Bip]Y(Carboxymethyl)[Orn][dL][Dab][Cha][Val(3-OH)]SC[Dab][Pra]-OH; thioether N-14),247 nM
14,CC(C)C[C@@H]1NC(=O)[C@H](CCN)NC(=O)[C@@H](CC(C)C)NC(=O)[C@H](CCCN)NC(=O)[C@H](CCCNC(=N)N)NC(=O)[C@H](Cc2ccc(-c3ccccc3)cc2)NC(=O)[C@H](C(C)C)NC(=O)[C@H](Cc2c[nH]c3ccccc23)NC(=O)[C@H](CC(=O)O)NC(=O)[C@H](Cc2ccncc2)NC(=O)[C@H](CN)NC(=O)CSC[C@@H](C(=O)N[C@@H](C)C(N)=O)NC(=O)[C@H]([C@@H](C)O)NC(=O)[C@H](C(C)C)NC1=O [Compound 1244] ({CH2CO}-[Dap][4Pal]DWV[Bip]R[Orn][dL][Dab]LVTCA-NH2; thioether N-14),22.3 nM
15,Cc1cccc(C[C@@H]2NC(=O)[C@H](CC(=O)O)NC(=O)[C@H](Cc3ccc(C(=O)O)cc3)NC(=O)[C@H](Cc3ccncc3)NC(=O)CSC[C@@H](C(N)=O)NC(=O)[C@H](CCCN)NC(=O)[C@H](C(C)C)NC(=O)[C@H](CC3CCCCC3)NC(=O)[C@H](CCN)NC(=O)[C@@H](CC(C)C)NC(=O)[C@H](CCCN)NC(=O)[C@H](CCCNC(N)=O)NC(=O)[C@H](Cc3ccc(-c4ccccc4)cc3)NC(=O)[C@H](C(C)C)NC2=O)c1 [Compound 2265] ({CH2CO}-[4Pal][Phe(4-COOH)]D[Phe(3-Me)]V[Bip][Cit][Orn][dL][Dab][Cha]V[Orn]C-NH2; thioether N-14),12.8 nM
